From US8501713B2, “Drug combinations for the treatment of duchenne muscular dystrophy” (Summit Corporation PLC, priority 2007, dated 2013)

Test system: Utrophin A promoter linked to a luciferase reporter gene
Assay: Luciferase reporter assay (murine H2K cells)
Type: cell-based
Settings: for activity at 10 µM: Mus musculus, H2K mdx, luciferase level relative to control, H2K/mdx/Utro A reporter cells, compound 10 μM final concentration, read-out: Activity; for Activity: luciferase reporter assay in murine H2K cells, classified relative to control
Procedure, shortened: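 Immortalized mdx mouse H2K myoblasts stably carrying a ~5 kb utrophin A promoter–luciferase construct, kept at 33° C, 10% CO2. After 24 hrs plating, compound added at 10 μM final for 48 hrs; luciferase light output read after in-situ lysis.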

Q: Which activity at 10 µM does the source give for `CC(=O)Nc1ccc(-c2ccc3oc(-c4ccc(Cl)cc4)nc3c2)cn1` [Example 358, N-(5-(2-(4-chlorophenyl)benzo[d]oxazol-5-yl)pyridin-2-yl)acetamide] here?
A: < 200%

Q: With `CC(C)C(=O)N(C)c1ccc2oc(-c3ccc(Cl)cc3)nc2c1` [Example 320, N-(2-(4-chlorophenyl)benzo[d]oxazol-5-yl)-N-methylisobutyramide] as the molecule, how does the activity at 10 µM read?
A: 201 to 300%

Q: With `CCCC(=O)Nc1cnc2oc(-c3ccccc3)nc2c1` [Example 170, N-(2-phenyloxazolo[5,4-b]pyridin-6-yl)butyramide] as the molecule, how does the activity at 10 µM read?
A: < 200%

Q: `Cc1ccc(C(=O)Nc2ccc3oc(-c4ccc(Cl)cc4)nc3c2)cc1` [Example 90, N-(2-(4-chlorophenyl)benzo[d]oxazol-5-yl)-4-methylbenzamide] was tested. Which activity at 10 µM did it give?
A: < 200%

Q: `c1ccc2nc(-c3nc4ccccc4s3)ccc2c1` [Example 639] was tested. Which Activity did it give?
A: +++ (Between 301% and 400% relative to control)

Q: For `CCCCc1ccc(-c2nc3cc([N+](=O)[O-])ccc3o2)nc1` [Example 250, 2-(5-butylpyridin-2-yl)-5-nitrobenzo[d]oxazole], which activity at 10 µM is on record?
A: < 200%

Q: For `CCS(=O)(=O)c1ccc2oc(-c3cccc(Cl)c3Cl)nc2c1` [Example 304, 2-(2,3-diChlorophenyl)-5-(ethylsulfonyl)benzo[d]oxazole], which activity at 10 µM is on record?
A: < 200%

Q: `CC(C)C(=O)Nc1ccc2sc(-c3cccc(Cl)c3)nc2c1` [Example 296, N-(2-(3-chlorophenyl)benzo[d]thiazol-5-yl)isobutyramide] was tested. Which activity at 10 µM did it give?
A: > 401%

Q: `CCCCC(=O)Nc1ccc2oc(-c3ccc(OC)cc3)nc2c1` [Example 138, N-(2-(4-methoxyphenyl)benzo[d]oxazol-5-yl)pentanamide] was tested. Which activity at 10 µM did it give?
A: < 200%

Q: `O=[N+]([O-])c1ccc2oc(-c3ccco3)nc2c1` [Example 366, 2-(furan-2-yl)-5-nitrobenzo[d]oxazole] was tested. Which activity at 10 µM did it give?
A: < 200%

Q: Which activity at 10 µM does the source give for `CC(=O)Nc1ccccc1-c1ccc2oc(-c3ccc(Cl)cc3)nc2c1` [Example 294, N-(2-(2-(4-chlorophenyl)benzo[d]oxazol-5-yl)phenyl)acetamide] here?
A: < 200%

Q: How did the activity at 10 µM turn out when `Nc1ccc2oc(-c3ccc(C4CCCCC4)cc3)nc2c1` [Example 421, 2-(4-cyclohexylphenyl)benzo[d]oxazol-5-amine] was run?
A: > 401%

Q: How did the activity at 10 µM turn out when `O=C(Nc1ccc2oc(-c3ccccc3)nc2c1)c1ccc(Cl)c(Cl)c1` [Example 28, 3,4-dichloro-N-(2-phenylbenzo[d]oxazol-5-yl)benzamide] was run?
A: < 200%

Q: How did the Activity turn out when `O=C(Nc1nc2ccc(F)cc2s1)c1cccs1` [Example 658] was run?
A: +++ (Between 301% and 400% relative to control)

Q: With `CCS(=O)(=O)c1ccc2oc(-c3ccc(-c4ccccc4)cc3)nc2c1` [Example 426, 2-(biphenyl-4-yl)-5-(ethylsulfonyl)benzo[d]oxazole] as the molecule, how does the activity at 10 µM read?
A: < 200%

Q: How did the activity at 10 µM turn out when `Nc1ccc(C(=O)Nc2ccc(-c3nc4cc(Br)ccc4o3)cc2)cc1` [Example 337, 4-amino-N-(4-(5-bromobenzo[d]oxazol-2-yl)phenyl)benzamide] was run?
A: < 200%

Q: Which activity at 10 µM does the source give for `CC(C)(C)c1ccc2oc(-c3ccc(Cl)cc3)nc2c1` [Example 321, 5-tert-butyl-2-(4-chlorophenyl)benzo[d]oxazole] here?
A: > 401%

Q: With `O=[N+]([O-])c1cnc2oc(-c3ccccc3)nc2c1` [Example 153, 6-nitro-2-phenyloxazolo[5,4-b]pyridine] as the molecule, how does the activity at 10 µM read?
A: < 200%

Q: With `Cc1ccc(C(=O)Nc2ccc3c(c2)ncn3C)cc1` [Example 670] as the molecule, how does the Activity read?
A: ++ (Between 201% and 300% relative to control)

Q: Which activity at 10 µM does the source give for `Nc1ccc(-c2ccc3oc(-c4ccc(Cl)cc4)nc3c2)cc1` [Example 329, 4-(2-(4-chlorophenyl)benzo[d]oxazol-5-yl)aniline] here?
A: > 401%

Q: For `CCN(CC)c1ccc(-c2nc3cc(NC(=O)c4cccnc4)ccc3o2)cc1` [Example 60, N-(2-(4-(diethylamino)phenyl)benzo[d]oxazol-5-yl)nicotinamide], which activity at 10 µM is on record?
A: 201 to 300%

Q: How did the activity at 10 µM turn out when `CCS(=O)(=O)c1ccc2oc(-c3cccc(Cl)c3F)nc2c1` [Example 391, 2-(3-chloro-2-fluorophenyl)-5-(ethylsulfonyl)benzo[d]oxazole] was run?
A: 201 to 300%

Q: Which activity at 10 µM does the source give for `O=C(Cc1ccccc1)Nc1ccc2oc(Cc3ccccc3)nc2c1` [Example 165, N-(2-benzylbenzo[d]oxazol-5-yl)-2-phenylacetamide] here?
A: < 200%

Q: Which activity at 10 µM does the source give for `Cc1ccc(-c2nc3cc(N)ccc3o2)cc1` [Example 18, 2-p-tolylbenzo[d]oxazol-5-amine] here?
A: < 200%

Q: For `Cc1ccc(-c2nc3cc(NC(=O)C(F)(F)F)ccc3o2)cc1` [Example 209, 2,2,2-trifluoro-N-(2-p-tolylbenzo[d]oxazol-5-yl)acetamide], which activity at 10 µM is on record?
A: 201 to 300%

Q: How did the Activity turn out when `Nc1ccc2nc(-c3cccc(Cl)c3)oc2c1` [Example 598] was run?
A: +++ (Between 301% and 400% relative to control)

Q: How did the Activity turn out when `Cn1c(NC(=N)c2ccccc2)nc2ccccc21` [Example 669] was run?
A: ++ (Between 201% and 300% relative to control)

Q: How did the Activity turn out when `CC(=O)c1c(C)nc(Nc2nc3ccccc3o2)nc1C` [Example 681] was run?
A: ++ (Between 201% and 300% relative to control)

Q: With `CC(=O)Nc1ccc(-c2nc3cc(Br)ccc3o2)cc1` [Example 359, N-(4-(5-bromobenzo[d]oxazol-2-yl)phenyl)acetamide] as the molecule, how does the activity at 10 µM read?
A: > 401%

Q: `Cc1ccccc1C(=O)Nc1nc2ccccc2[nH]1` [Example 648] was tested. Which Activity did it give?
A: +++ (Between 301% and 400% relative to control)

Q: `CCCC(=O)Nc1ccc2nc(-c3ccc(Cl)cc3)oc2c1` [Example 256, N-(2-(4-chlorophenyl)benzo[d]oxazol-6-yl)butyramide] was tested. Which activity at 10 µM did it give?
A: 201 to 300%

Q: With `CCC(=O)Nc1ccc(-c2nc3ccccc3s2)cc1` [Example 667] as the molecule, how does the Activity read?
A: ++ (Between 201% and 300% relative to control)

Q: How did the activity at 10 µM turn out when `CCC(=O)c1ccc2oc(-c3ccc(Cl)cc3)nc2c1` [Example 417, 1-(2-(4-chlorophenyl)benzo[d]oxazol-5-yl)propan-1-one] was run?
A: > 401%

Q: For `CCN(CC)c1ccc(-c2nc3cc(NC(=O)c4ccncc4)ccc3o2)cc1` [Example 61, N-(2-(4-(diethylamino)phenyl)benzo[d]oxazol-5-yl)isonicotinamide], which activity at 10 µM is on record?
A: < 200%

Q: For `CC(C)C(=O)Nc1ccc2oc(-c3ccc(F)cc3)nc2c1` [Example 258, N-(2-(4-fluorophenyl)benzo[d]oxazol-5-yl)isobutyramide], which activity at 10 µM is on record?
A: 301 to 400%

Q: For `Oc1ccc2nc(-c3ccc(Cl)cc3)oc2c1` [Example 579], which Activity is on record?
A: ++++ (Above 401% relative to control)

Q: `CC(=O)Nc1ccc(-c2nc3cc(C)cc(C)c3o2)cc1` [Example 529] was tested. Which Activity did it give?
A: ++ (Between 201% and 300% relative to control)

Q: How did the Activity turn out when `O=C(Nc1nc2ccc(F)cc2s1)c1ccccc1Br` [Example 629] was run?
A: ++++ (Above 401% relative to control)

Q: For `CCS(=O)(=O)c1ccc2oc(-c3sccc3C)nc2c1` [Example 436, 5-(ethylsulfonyl)-2-(3-methylthiophen-2-yl)benzo[d]oxazole], which activity at 10 µM is on record?
A: 201 to 300%

Q: With `CCCS(=O)(=O)Nc1ccc2oc(-c3ccc(C)cc3)nc2c1` [Example 253, N-(2-p-tolylbenzo[d]oxazol-5-yl)propane-1-sulfonamide] as the molecule, how does the activity at 10 µM read?
A: < 200%

Q: With `Cc1ccc(-c2nc3cc(NC(=O)CCC(F)(F)F)ccc3o2)cc1` [Example 233, 4,4,4-trifluoro-N-(2-p-tolylbenzo[d]oxazol-5-yl)butanamide] as the molecule, how does the activity at 10 µM read?
A: < 200%

Q: How did the Activity turn out when `c1ccc(OCc2nc3ccccc3s2)cc1` [Example 633] was run?
A: +++ (Between 301% and 400% relative to control)

Q: `Cn1c(COc2ccc(Cl)cc2)nc2ccccc21` [Example 3, 2-((4-chlorophenoxy)methyl)-1-methyl-1H-benzo[d]imidazole] was tested. Which activity at 10 µM did it give?
A: 301 to 400%

Q: Which activity at 10 µM does the source give for `CCCc1nc2cc(N)ccc2o1` [Example 154, 2-propylbenzo[d]oxazol-5-amine] here?
A: < 200%

Q: `Nc1ccc(-c2nc3cc(Cl)c(Cl)cc3o2)cc1` [Example 440, 4-(5,6-dichlorobenzo[d]oxazol-2-yl)aniline] was tested. Which activity at 10 µM did it give?
A: > 401%

Q: With `CNC(=O)Nc1ccc2nc(C)oc2c1` [Example 467] as the molecule, how does the Activity read?
A: + (Up to 200% relative to control)

Q: For `COc1cccc(-c2ccc3oc(-c4ccc(Cl)cc4)nc3c2)n1` [Example 327, 2-(4-chlorophenyl)-5-(6-methoxypyridin-2-yl)benzo[d]oxazole], which activity at 10 µM is on record?
A: < 200%

Q: How did the activity at 10 µM turn out when `CC(C)C(=O)Nc1ccc2oc(-c3cnc4ccccc4c3)nc2c1` [Example 415, N-(2-(quinolin-3-yl)benzo[d]oxazol-5-yl)isobutyramide] was run?
A: > 401%

Q: For `Cn1c(-c2ccc([N+](=O)[O-])cc2)nc2ccccc21` [Example 472], which Activity is on record?
A: + (Up to 200% relative to control)

Q: For `Cc1ccc2nc(NC(=O)c3ccco3)sc2c1` [Example 652], which Activity is on record?
A: +++ (Between 301% and 400% relative to control)

Q: For `CCn1c(C)nc2cc(-c3ccccc3)ccc21` [Example 634], which Activity is on record?
A: +++ (Between 301% and 400% relative to control)

Q: How did the Activity turn out when `Cc1ccc2nc(-c3ccc(NC(=O)c4cccs4)cc3)oc2c1` [Example 672] was run?
A: ++ (Between 201% and 300% relative to control)

Q: `O=[N+]([O-])c1ccc2oc(C3CCCCC3)nc2c1` [Example 163, 2-cyclohexyl-5-nitrobenzo[d]oxazole] was tested. Which activity at 10 µM did it give?
A: < 200%

Q: With `O=C(Nc1ccc2oc(-c3ccccc3)nc2c1)c1cccnc1` [Example 6, N-(2-phenylbenzo[d]oxazol-5-yl)nicotinamide] as the molecule, how does the activity at 10 µM read?
A: < 200%

Q: With `O=S(=O)(c1ccc(-c2nc3ccccc3s2)cc1)N1CCCCC1` [Example 516] as the molecule, how does the Activity read?
A: ++ (Between 201% and 300% relative to control)

Q: For `COc1ccccc1-c1nc2ccccc2s1` [Example 522], which Activity is on record?
A: + (Up to 200% relative to control)

Q: `O=[N+]([O-])c1ccc2nc(-c3ccccc3)[nH]c2c1` [Example 604] was tested. Which Activity did it give?
A: +++ (Between 301% and 400% relative to control)

Q: Which activity at 10 µM does the source give for `CC(C)CNc1ccc2oc(-c3ccccc3)nc2c1` [Example 168, N-isobutyl-2-phenylbenzo[d]oxazol-5-amine] here?
A: > 401%

Q: For `Nc1ccc(-c2ccc3oc(-c4ccc(Cl)cc4)nc3c2)cn1` [Example 338, 5-(2-(4-chlorophenyl)benzo[d]oxazol-5-yl)pyridin-2-amine], which activity at 10 µM is on record?
A: > 401%
